Test results from patent US8716256B2, “Method of therapy and diagnosis of atherosclerosis” (Kaoshiung Medical University, priority 2011, dated 2014).

What was measured:
Assay type in all cases: cell-based, human
LOX-1 = LOX-1 expression in HASMC by real time PCR and western blot; conditions: for oxLDL-induced LOX-1 expression (mRNA): HASMC treated with oxLDL plus suppressor, FIGS. 19, 22, 26; for protein levels of LOX-1 (western blot): HASMC with suppressor, with or without oxLDL, FIGS. 20, 23, 28
Protocol: With reference to FIG. 2, there center on the expression of oxLDL and LOX-1 in human aortic smooth muscle cells. In the present embodiment, a primary human aortic smooth muscle cells (HASMC) cell line purchased from Cascade Biologics (OR, USA) is prepared and treated with various levels of oxLDL. More specifically, the HASMC cell line is incubated in a commercial smooth muscle cell growth supplement (SMGS) medium (Cascade Biologics, OR, USA) at 37° C. in a humidified atmosphere of 95% air and 5% CO2.
In the present embodiment, the HASMC cell line is grown in a 6-well plate till at a density of 2×10^5 cell/well, and then randomly assigned into four groups. The four groups of HASMC are co-cultured with 0, 20, 40, and 60 μg/ml of oxLDL individually for 24 hours, followed by analyzing the gene expression of HASMC via real time polymerase chain reaction (PCR) and western blot. Total RNA samples of the four groups of HASMC are prepared by using a Trizol® reagent (Invitrogen, CA, USA), and further quantitatively confirmed by a spectrophotometer at A260/A280 readings. Then, cDNA samples of the four groups of HASMC are synthesized by using a random primer and a MultiScribe™ Reverse Transcriptase Kit (Applied Biosystems Inc, CA, USA). The cDNA samples of the four groups of HASMC are sequentially diluted in 2×SYBR Green PCR Master Mix (Applied Biosystems Inc, CA, USA) to carry out quantitative real time PCR analysis. In the present invention, a primer pair of LOX-1 is designed and used in the real time PCR analysis, wherein the primer pair of LOX-1 is set forth in SEQ ID NO. 3 and 4.
On the other hand, protein samples of the four groups of HASMC are prepared by harvesting the four groups of HASMC in RIPA buffer (Invitrogen, CA, USA) firstly and centrifuged at 4° C. 1,2000 rpm to obtain supernatants as total cell lysate of the four groups of HASMC. In the present embodiment, the four groups of protein lysate are denatured in a mixture of 2% SDS, 10 mM dithiothreitol, 60 mM Tris-HCl (pH6.8) and 0.1% bromphenol blue, and then analyzed by polyacrylamide/SDS gel. Data obtained from the polyacrylamide/SDS gel analysis are further transferred to PVDF membrane for western blot assay.
In FIG. 9, the expression of LOX-1 in HASMC under various levels of let-7g is monitored and reordered. […]
(§1) In the present embodiment, the HASMCs are randomly assigned into four groups, including groups (O1), as a control; (O2), with treatment of oxLDL; (O3), with co-transfection of the OCT-1 shRNA; and (O4), with co-transfection of the OCT-1 shRNA and treatment of oxLDL, wherein total RNA samples and protein sample of those groups are extracted and analyzed by the real time PCR and the western blot of the present invention. […]

let-7g = let-7g expression in HASMC by northern blot and real time PCR; conditions: HASMC treated with oxLDL plus suppressor; FIGS. 18, 21, 25
Protocol: In FIGS. 7 and 8, there is the relationship between oxLDL and let-7g in the HASMC. In the present embodiment, the HASMC are treated with various levels of oxLDL, for example 0, 20, 40 and 60 μg/ml, in order to monitor and to recorder the effect of oxLDL on let-7g. Similarly, the HASMC cell is grown in a 6-well plate till at a density of 2×10^5 cell/well, and then randomly assigned into plural groups with the treatment of 0, 20, 40 and 60 μg/ml oxLDL individually for 24 hours. Finally, total RNA samples of each group of HASMC are analyzed by northern blot and quantified real time PCR via above protocols. In the present embodiment, a primer pair of let-7g as set forth in SEQ ID NO: 7 and 8 is used in the teal time PCR analysis according to the same PCR program described above. Also, the northern blot of the present invention is determined by using a miRNA northern blot assay kit (Applied Biosystems, CA, USA). […]
as §1

OCT-1 = OCT-1 expression in HASMC by real time PCR and western blot; conditions: for protein levels of OCT-1 (western blot): HASMC with suppressor, with or without oxLDL, FIGS. 23, 28
Protocol: The following trials stress on the mechanism between let-7g, LOX-1, oxLDL and OCT-1. In FIG. 17, the expression of OCT-1 under various levels of oxLDL is shown. In the present embodiment, […], and then total RNA samples and protein samples of the HASMC are prepared and analyzed by the real time PCR and western blot assay of the present invention. Precisely, the preparation of the total RNA samples and the protein samples of the HASMC, also the PCR program and western blot assay are performed according to the above protocols. Moreover, a primer pair of OCT-1 set forth in SEQ ID NO. 19 and 20 is designed and used in real time PCR analysis, and a commercial OCT-1 antibody (Sigma-Aldrich Inc, MO, USA) is used in western blot assay.
In the present embodiment, primer pairs set forth in SEQ ID NO. 3, 4, 7, 8, 19, 20, the LOX-1 antibody, and the OCT-1 antibody are used respectively in PCR or western blot assay.
With reference to FIG. […] More specifically, […], such as 0, 25, 50, and 75 μg/ml, […] 2000, […] by real time PCR and western blot according to the protocols described above. Moreover, primer pairs set forth in SEQ ID NO. 19 and 20, and the OCT-1 antibody are used respectively in PCR or western blot analysis.

3'UTR region of LOX-1 = assay: LOX-1 3'UTR luciferase reporter assay in CRL-1999 cells; conditions: groups U1 to U7, FIG. 12
Excerpt: Referring to FIGS. 10 and 11, the relationship between oxLDL, LOX-1 and let-7g is further identified. In the present invention, the 3′UTR region of LOX-1 is cloned into a commercial vector, preferably downstream of a reporter gene, such as a luciferase gene, for the sake of studying the effect of oxLDL and let-7g on LOX-1 by estimating the activity of the reporter gene. In the present embodiment, a pMIR-LOX-1-3UTR vector is obtained by PCR amplifying the 3′UTR region of LOX-1 in the chromosome DNA of HASMC with a primer pair set forth in SEQ ID NO. 9 and 10; and cloning the amplified 3′UTR region of LOX-1 into a pMIR-REpORT luciferase vector (Ambion Inc, TX, USA). Furthermore, the pMIR-LOX-1-3UTR vector of the present embodiment is transfected into a human smooth muscle cell line CRL-1999 purchased from ATCC (Manassas, Va., USA) by using lipofectamine 2000 (Invitrogen Inc, CA, USA). In the present embodiment, the CRL-1999 cell line of the present embodiment is incubated in F12K Kaighn's modification medium (GIBCO-BRL, MD, USA) with various levels of oxLDL and let-7g mimic, followed by analyzed the activity of luciferase by a Luciferase Assay System (Promega, WI, USA). […]

Compound	oxLDL-induced LOX-1 expression (mRNA) (LOX-1)	protein levels of LOX-1 (western blot) (LOX-1)	oxLDL-mediated inhibition on let-7g (relative let-7g levels) (let-7g)	oxLDL-induced OCT-1 expression (mRNA) (OCT-1; HASMC treated with oxLDL plus MAPTAM, FIG. 27)	protein levels of OCT-1 (western blot) (OCT-1)	luciferase activity, pMIR-LOX-1-3UTR versus pMIR-LOX-1 mutant 3'UTR (3'UTR region of LOX-1)
CC(=O)OCOC(=O)CN(CC(=O)OCOC(C)=O)c1ccc(C)cc1OCCOc1cc(C)ccc1N(CC(=O)OCOC(C)=O)CC(=O)OCOC(C)=O [MAPTAM]	decreased	significant decrease	decreased	decreased	significant decrease	
COc1ccc2c(c[n+](C)c3c4cc5c(cc4ccc23)OCO5)c1OC [chelerythrine]	inhibited	significant decrease	inhibited		significant decrease	
let-7g: mature form of microRNA-let-7g, as set forth in SEQ ID NO. 2 (UGAGGUAGUAGUUUGUACAGUU; listed as RNA, chemistry not given here; listed as Homo sapiens)						targets to the 3′UTR region of LOX-1 to suppress the expression of LOX-1
